The values that follow come from US8247552B2, “Analogs of dehydrophenylahistins and their therapeutic use” (Nereus Pharmaceuticals, Inc., priority 2002, dated 2012).

Broadly, the EC50 is the midpoint of the concentration-response curve.

One series relates to HT-29 human colon cells. Nature of the series: Tumor cytotoxicity / cell growth inhibition assay, resazurin fluorescence, 48 h. To be noted: for EC50: Homo sapiens. It counts as cell-based. On the technique in general: The colour change of resazurin is a common sign of viable cells or microbes.
The test system of series [1] is MES-SA/Dx5 (Taxol resistant) human uterine sarcoma. Nature of the series: Cytotoxicity / growth inhibition in multidrug resistant uterine sarcoma cells. It counts as cell-based. Here is the method: 1) Human Uterine Sarcoma Tumor Cell Line Pair: MES-SA (Taxol Sensitive) and MES-SA/Dx5 (Taxol Resistant).
HL-60 and HL-60/MX2 cells were both seeded at 5×10^4 cells/well in 90 μl complete media into 96 well plates on the day of compound addition. […] Ten μl volumes of the 10× serial dilutions were added to the test wells in triplicate and the plates returned to the incubator for 48 hours.
Resazurin dye in medium without cells was used to determine the background, which was subtracted from the data for all experimental wells.
The multidrug resistant MES-SA/Dx5 tumor cell line was derived from the human uterine sarcoma MES-SA tumor cell line and expresses elevated P-Glycoprotein (P-gp), an ATP dependent efflux pump. […] Paclitaxel, a known substrate of the P-gp pump was included as a control.

A further series has as its system MCF-7 human breast tumor. Nature of the series: MCF-7 Human Breast Tumor Xenograft Model. It counts as in vivo, mice. The following applies: combination with taxotere. How it is done: Animals used were (exceptions are indicated for individual studies): female nude mice (nu/nu) between 5 and 6 weeks of age (˜20 g, Harlan); group size was 9-10 mice per group unless otherwise indicated.
Female nude mice (˜20 g) were implanted s.c. with 21-day release estrogen (0.25 mg) pellets 24 hours prior to the s.c. implantation with MCF-7 tumor fragments (harvested from s.c. tumors in nude mice hosts). The study then proceeded as described for the HT-29 model, using taxotere as the standard chemotherapy agent.
In this model unless otherwise noted for the individual study, the novel compounds were injected via the intraperitoneal route daily on Days 1-5, inclusive (qdx5); taxotere was administered intravenously on Days 1, 3 and 5 (qodx3).
The doses of the compounds were administered on Days 1, 2, 3, 4, and 7; Taxotere was administered on Days 1, 3 and 7.
Background: In xenograft studies the graft and the host belong to different species.

The test system of a further series is Trichophyton rubrum. Nature of the series: Antifungal susceptibility testing (NCCLS M38-A), MIC/MFC. It counts as cell-based. The following applies: for antifungal potency compared with griseofulvin: dermatophyte isolates. How it is done:
(§1) Specifically, disclosed compounds were evaluated alongside commercially available microtubulin inhibitors as well as recognized antifungal agents.
(§2) Microorganisms against which these compounds were tested included: Candida albicans, Candida glabrata, Aspergillus fumigatus, Trichophyton rubrum, Trichophyton mentagrophytes, Epidermophyton floccosum. With the exception of Candida glabrata (one isolate), two isolates of each species were tested.
(§3) The minimum lethal concentration (MLC) was determined by plating […] from the MIC concentration and each concentration above the MIC. […] When a MIC was obtained, a minimum fungicidal concentration (MFC) was determined to assess the fungistatic/fungicidal nature of the compound.

The subject of another series is HuVEC cells. Nature of the series: Microtubule (tubulin) depolymerization, α-tubulin staining. The following applies: 2 μM, thirty minutes exposure.
The test system of series [2] is MCF7 cells (GFP-alpha-tubulin). Nature of the series: Microtubule dynamic instability in living MCF7 cells (time-lapse microscopy). It counts as cell-based, human.
Series [3] deals with Jurkat cells (human T cell leukemia line). Nature of the series: DNA fragmentation (DNA laddering) by gel electrophoresis. The series is classed as cell-based. The source says: A late stage characteristic of apoptosis is internucleosomal DNA cleavage that results in a distinctive ladder pattern that can be visualized by gel electrophoresis.
A further series deals with Candida albicans. Nature of the series: Antifungal susceptibility testing (NCCLS M38-A), MIC/MFC. It counts as cell-based. To be noted: Table 23. Here is the method:
as §1, §2, §3

The subject of a further series is Candida glabrata. The series is described as above. The series is classed as cell-based. The following applies: Table 23. How it is done: as §1, §2, §3
Series [4] deals with Trichophyton mentagrophytes. The series is described as above. The series is classed as cell-based. How it is done: Specifically, disclosed compounds were evaluated alongside commercially available microtubulin inhibitors as well as recognized antifungal agents. […].
as §2
Drug concentrations were 0.03-16 μg/ml for the investigational compounds, 0.015-8 μg/ml for itraconazole and griseofulvin.
The minimum lethal concentration (MLC) was determined by plating […] from the MIC concentration and each concentration above the MIC. […] When a MIC was obtained, a minimum fungicidal concentration (MFC) was determined to assess the fungistatic/fungicidal nature of the compound. […] The compound is scored as fungistatic if the cells are able to resume growth and fungicidal if no regrowth is possible because the compound had killed the organisms.

Setting [5] is: Table 28, 25% of the maximal mitotic block.
Where [6] appears, read: Table 29, 50% of the maximal mitotic block.

≈ marks a conversion by molar mass, not a printed value. Read-outs that look alike come from different tables or passages of the source.

Experimental for HuVEC cells: The plates were returned to the incubator for 2 days.
20 mM stock solutions of compounds were prepared in 100% DMSO and stored at −80° C. 400× concentrated dilutions of the compounds were prepared in 100% DMSO. 5 μl volumes of the dilutions were added to individual wells resulting in a final concentration of 20 nM. […] The plates were returned to the incubator for 30 minutes.
The cells were rinsed in dPBS before fixation in 10% (v/v) neutral buffered formalin for 10 minutes at room temperature. Following fixation, α-tubulin was visualized by indirect immunofluorescence. Specifically, the cells were permeabilized in 0.2% (v/v) triton X-100/dPBS for 10 minutes. The cells were washed prior to transferring the coverslips to a humidified chamber, the coverslips were blocked for two hours in antibody buffer [2% (w/v) BSA/0.1% (v/v) Tween 20/dPBS]. The coverslips were incubated with 50 μl of 0.1 μg/ml mouse α-tubulin (Molecular Probes) in antibody buffer for 1 hour before washing and incubation with 50 μl of 1 μg/ml goat anti-mouse FITC (Jackson ImmunoResearch Laboratories) for one hour in the dark. Finally, the cells were washed and treated with 2 μg/ml DAPI (Molecular Probes) for 10 minutes before rinsing in H2O and mounting with Vectashield (Vector Labs) mounting media. The cells were imaged using a 60× oil immersion objective on an upright microscope (Olympus BX51). The images were digitally captured using a CCD camera and Magnafire 2.0 software (Olympus). Post image processing was performed in Photoshop Elements 2.0 (Adobe) and in Microsoft Powerpoint.
Human umbilical vein endothelial cells (HuVECs; Cambrex CC2519A) were maintained at subconfluent densities in EGM-2 (Cambrex) media. […] The plates were returned to the incubator for 2 days.
Stock (20 mM) solutions of the test compounds were prepared in 100% DMSO. 400× concentrated dilutions of the compounds were prepared in 100% DMSO. 5 μl volumes of the dilutions were added to individual wells resulting in a final concentration of 200 nM. […] The plates were returned to the incubator for 30 minutes.
The cells were rinsed in dPBS before fixation in 10% (v/v) neutral buffered formalin for 10 minutes at room temperature. Following fixation, α-tubulin was visualized by indirect immunofluorescence. Specifically, the cells were permeabilized in 0.2% (v/v) triton X-100/dPBS for 10 minutes. The cells were washed prior to transferring the coverslips to a humidified chamber, the coverslips were blocked for two hours in antibody buffer (2% (w/v) BSA/0.1% (v/v) Tween 20/dPBS). The coverslips were incubated with 50 μl of 0.1 μg/ml mouse α-tubulin (Molecular Probes) in antibody buffer for 1 hour before washing and incubation with 50 μl of 1 μg/ml goat anti-mouse FITC (Jackson ImmunoResearch Laboratories) for one hour in the dark. Finally, the cells were washed and treated with 2 μg/ml DAPI (Molecular Probes) for 10 minutes before rinsing in H2O and mounting with Vectashield (Vector Labs) mounting media. The cells were imaged using a 60× oil immersion objective on an upright microscope (Olympus BX51). The images were digitally captured using a CCD camera and Magnafire 2.0 software (Olympus). Post image processing was performed in Photoshop Elements 2.0 (Adobe) and in Microsoft Powerpoint.
Experimental for human hepatic P450s: In the recent his study, (±)-phenylahistin was treated with rat hepatic microsome or human hepatic P450s.

As for `COc1cc(OC)c(/C=c2\[nH]c(=O)/c(=C/c3nc[nH]c3C(C)(C)C)[nH]c2=O)c(OC)c1` [KPU-45, tBu-ΔPLH-2,4,6-TriOMe], the “cytotoxic activity against HT-29 cells” value with HT-29 human colon cells is given as “also showed activity”.
As to `CC(C)(C)c1[nH]cnc1/C=C1\NC(=O)[C@H](Cc2ccccc2)NC1=O` [t-butyl-phenylahistin], in series [1], the “potency in resistant MES-SA/DX5 versus sensitive MES-SA line” value is “only slightly reduced”. The “effect on estimated tumor growth with taxotere” value in the series with MCF-7 human breast tumor is recorded as “significant potentiation of taxotere”. For the same compound, the “antifungal potency compared with griseofulvin” value in the series on Trichophyton rubrum is on record as “equivalent in potency or in some cases more potent than griseofulvin”. The “microtubule depolymerization in HuVEC cells” value in the series on HuVEC cells is given as “induced microtubule depolymerization”.
Consider `CC(C)(C)c1[nH]cnc1/C=c1\[nH]c(=O)/c(=C/c2ccccc2)[nH]c1=O` [compound 2421], for which, in the series with HT-29 human colon cells (HT-29, read-out: EC50 (M) Mean, Table 3.1, cell line not given, assay as above), the EC50 worked out at 2.22e-08 M. The “% cytotox Mean” value in the series on HT-29 human colon cells (Table 3.1, cell line not given) is recorded as 88%.
On to `COc1cccc2c1C(=O)c1c(O)c3c(c(O)c1C2=O)C[C@@](O)(C(=O)CO)C[C@@H]3O[C@H]1C[C@H](N)[C@H](O)[C@H](C)O1` [doxorubicin, Doxorubicin], for which the “reduced susceptibility of MES-SA/DX5 cell line” value in [1] (versus MES-SA) stood at 34 fold.
Regarding `COc1ccc(/C=C\c2cc(OC)c(OC)c(OC)c2)cc1O` [CA4, Combretastatin A4], in series [2] (setting [5]), the “% time spent Attenuation” value amounted to 39.50%, the “% time spent Growth” value is on record as 35.31%, the “% time spent Shortening” value is 25.19% and the “Freq. of (min-1) Catastrophe” value was found to be 1.52 min⁻¹. In addition, in series [2] (setting [5]), the “Freq. of (min-1) Rescue” value is 1.90 min⁻¹, the “Mean duration (min) Attenuation” value was 0.45 min, the “Mean duration (min) Growth” value is recorded as 0.27 min and the “Mean duration (min) Shortening” value was 0.21 min. Besides, the “Mean rates (μm/min) Shortening” value in series [2] (setting [5]) was 40.21 μm/min. Further, the “Mean rates (μm/min) Growth” value in series [2] (Table 28, concentration effecting 25% of the maximal mitotic block in MCF7 cells) stood at 10.59 μm/min. Moreover, the “Dyn. (μm/min)” value in series [2] (Table 28, dynamicity, 25% of the maximal mitotic block) is 13.87 μm/min. Moreover, in series [2] (setting [6]), the “% time spent Attenuation” value is reported as 36.23%, the “% time spent Growth” value was found to be 43.64%, the “% time spent Shortening” value turned out to be 20.13% and the “Dynamicity (μm/min)” value came out at 10.91 μm/min. In addition, in series [2] (setting [6]), the “Freq. of (min-1) Catastrophe” value was 1.09 min⁻¹, the “Freq. of (min-1) Rescue” value was found to be 2.79 min⁻¹, the “Mean duration (min) Attenuation” value came to 0.55 min and the “Mean duration (min) Growth” value came out at 0.33 min. For the same compound, in series [2] (setting [6]), the “Mean duration (min) Shortening” value was 0.22 min and the “Mean rates (μm/min) Shortening” value is given as 29.88 μm/min. The “Mean rates (μm/min) Growth” value in [2] (Table 29, concentration effecting 50% of the maximal mitotic block in MCF7 cells) came to 11.21 μm/min. In addition, in series [2] (concentrations effecting 25% or 50% of maximal mitotic block), the “effect on MT dynamic instability” value is reported as “did not have a measurable effect on MT dynamic instability”.
In the case of (±)-phenylahistin, in the series with human hepatic P450s, the “metabolites detected” value was “at least seven metabolites were detected”; the “share of major metabolites P1 and P3 in recovered metabolites” value is “more than 60%”.
With `COc1cc(/C=c2\[nH]c(=O)/c(=C/c3nc[nH]c3C(C)(C)C)[nH]c2=O)cc(OC)c1OC` [KPU-11, tBu-ΔPLH-3,4,5-triOMe], the “cytotoxic activity against HT-29 cells” value in the series with HT-29 human colon cells is given as “also showed activity”. In the series on Trichophyton rubrum, the “antifungal potency compared with griseofulvin” value was “equivalent in potency or in some cases more potent than griseofulvin”.
On to `CC(C)(C)c1[nH]cnc1/C=c1\[nH]c(=O)/c(=C/c2cccc(OC(F)(F)F)c2)[nH]c1=O` [KPU-80, TBu- ΔPLH—m-OCF3], for which the “activity compared with tBu-dehydroPLH” value in the series on HT-29 human colon cells is given as “higher activity than tBu-dehydroPLH”.
Consider `CC(C)(C)c1[nH]cnc1/C=c1\[nH]c(=O)/c(=C/c2ccccc2)[nH]c1=O` [tBu-dehydrophenylahistin, 3-Z-Benzylidene-6-(5″-tert-butyl-1H-imidazol-4″-Z-ylmethylene)-piperazine-2,5-dione], for which the “cytotoxic activity in comparison with dehydrophenylahistin” value in the series on HT-29 human colon cells (Table 1 data) is on record as ~4 times.
As to `COc1ccc(/C=c2\[nH]c(=O)/c(=C/c3nc[nH]c3C(C)(C)C)[nH]c2=O)c(OC)c1OC` [KPU-17, tBu-ΔPLH-2,3,4-TriOMe], the “cytotoxic activity against HT-29 cells” value in the series with HT-29 human colon cells was “also showed activity”. Further, the “antifungal potency compared with griseofulvin” value in the series with Trichophyton rubrum is reported as “equivalent in potency or in some cases more potent than griseofulvin”.
On to `COc1ccc(F)c(/C=c2\[nH]c(=O)/c(=C/c3nc[nH]c3C(C)(C)C)[nH]c2=O)c1` [KPU-81, TBu-ΔPLH-2-F-5-OMe], for which the “activity compared with tBu-dehydroPLH” value in the series with HT-29 human colon cells is reported as “higher activity than tBu-dehydroPLH”.
Consider `COc1cc([C@@H]2c3cc4c(cc3[C@@H](O[C@@H]3O[C@@H]5CO[C@@H](C)O[C@H]5[C@H](O)[C@H]3O)[C@H]3COC(=O)[C@H]23)OCO4)cc(OC)c1O` [etoposide, Etoposide], for which the “reduced susceptibility of MES-SA/DX5 cell line” value in series [1] (versus MES-SA) worked out at 60 fold.
As to `CC(C)(C)c1ocnc1/C=c1\[nH]c(=O)/c(=C/c2ccccc2F)[nH]c1=O` [compound 2475, tBu-Oxadelta-PLH-2-F], the EC50 in the series with HT-29 human colon cells (Table 3.2, HT-29 cells, 48 hours, read-out: EC50 (M) Mean) came to 4.66e-08 M.
In the case of `CC(=O)O[C@H]1C(=O)[C@@]2(C)[C@H]([C@H](OC(=O)c3ccccc3)[C@]3(O)C[C@H](OC(=O)[C@H](O)[C@@H](NC(=O)c4ccccc4)c4ccccc4)C(C)=C1C3(C)C)[C@]1(OC(C)=O)CO[C@@H]1C[C@@H]2O` [Paclitaxel], the “times less active against resistant MES-SA/Dx5 cells” value in series [1] (versus MES-SA, Example 11) is recorded as ~400 times.
For `Cc1ccsc1/C=c1\[nH]c(=O)/c(=C/c2nc[nH]c2C(C)(C)C)[nH]c1=O` [KPU-29, tBu-ΔPLH-3-Me-2-thienyl], the “cytotoxic activity against HT-29 cells” value with HT-29 human colon cells was “exhibited activity”.
`COc1cc2c(c(OC)c1OC)-c1ccc(OC)c(=O)cc1[C@@H](NC(C)=O)CC2` [Colchicine]: the “microtubule depolymerization in HuVEC cells” value in the series on HuVEC cells is reported as “induced microtubule depolymerization”.
With phenylahistin [halimide], the “DNA laddering, potency compared with KPU-2” value in [3] was “much less potent”.
For `COc1cc(/C=c2\[nH]c(=O)/c(=C/c3nc[nH]c3C(C)(C)C)[nH]c2=O)cc(OC)c1` [KPU-16, tBu-ΔPLH-3,5-diOMe], in the series with HT-29 human colon cells, the “cytotoxic activity against HT-29 cells” value was “showed high activity”.
Regarding `C[C@@H]1[C@H](O)[C@@H](C)/C=C/C=C/C=C/C=C/C=C/C=C/C=C/[C@H](O[C@@H]2O[C@H](C)[C@@H](O)[C@H](N)[C@@H]2O)C[C@@H]2O[C@](O)(C[C@@H](O)C[C@@H](O)[C@H](O)CC[C@@H](O)C[C@@H](O)CC(=O)O[C@H]1C)C[C@H](O)[C@H]2C(=O)O` [amphotericin B, Amphotericin B], in the series with Candida albicans, the “MFC C. albicans 10231” value stood at 0.5 µg/mL (≈ 0.541 µM), the “MFC C. albicans 90028” value worked out at 0.5 µg/mL (≈ 0.541 µM), the “MIC C. albicans 10231” value came out at 0.5 µg/mL (≈ 0.541 µM) and the “MIC C. albicans 90028” value amounted to 0.5 µg/mL (≈ 0.541 µM). Moreover, in the series with Candida glabrata, the “MFC C. glabrata” value worked out at 1 µg/mL (≈ 1.08 µM) and the “MIC C. glabrata” value amounted to 1 µg/mL (≈ 1.08 µM).
For the compound `C=CC(C)(C)c1[nH]cnc1/C=C1\NC(=O)[C@H](Cc2ccccc2)NC1=O` [(−)-Phenylahistin], the “potency versus T. rubrum” value in the series on Trichophyton rubrum was “significantly less potent than the other compounds”. In series [4], the “potency versus sensitive T. mentagrophytes isolate” value was “weaker but more comparable to the others”.
